Measured values published in ChEMBL document CHEMBL2074333, “BPR0L075, a novel synthetic indole compound with antimitotic activity in human cancer cells, exerts effective antitumoral activity in vivo” (Cancer Res, 2004).

What was measured:
[1] = target: T1, ATP-dependent translocase ABCB1 (Homo sapiens, UniProt P08183); experiment: TP_TRANSPORTER: drug resistance in KB-VIN10 cells; format: functional, cell-based
[2] = target: T1, ATP-dependent translocase ABCB1; experiment: TP_TRANSPORTER: drug resistance in KB-TAX50 cells; format: functional, cell-based

T1 sequence (P08183 whole entry): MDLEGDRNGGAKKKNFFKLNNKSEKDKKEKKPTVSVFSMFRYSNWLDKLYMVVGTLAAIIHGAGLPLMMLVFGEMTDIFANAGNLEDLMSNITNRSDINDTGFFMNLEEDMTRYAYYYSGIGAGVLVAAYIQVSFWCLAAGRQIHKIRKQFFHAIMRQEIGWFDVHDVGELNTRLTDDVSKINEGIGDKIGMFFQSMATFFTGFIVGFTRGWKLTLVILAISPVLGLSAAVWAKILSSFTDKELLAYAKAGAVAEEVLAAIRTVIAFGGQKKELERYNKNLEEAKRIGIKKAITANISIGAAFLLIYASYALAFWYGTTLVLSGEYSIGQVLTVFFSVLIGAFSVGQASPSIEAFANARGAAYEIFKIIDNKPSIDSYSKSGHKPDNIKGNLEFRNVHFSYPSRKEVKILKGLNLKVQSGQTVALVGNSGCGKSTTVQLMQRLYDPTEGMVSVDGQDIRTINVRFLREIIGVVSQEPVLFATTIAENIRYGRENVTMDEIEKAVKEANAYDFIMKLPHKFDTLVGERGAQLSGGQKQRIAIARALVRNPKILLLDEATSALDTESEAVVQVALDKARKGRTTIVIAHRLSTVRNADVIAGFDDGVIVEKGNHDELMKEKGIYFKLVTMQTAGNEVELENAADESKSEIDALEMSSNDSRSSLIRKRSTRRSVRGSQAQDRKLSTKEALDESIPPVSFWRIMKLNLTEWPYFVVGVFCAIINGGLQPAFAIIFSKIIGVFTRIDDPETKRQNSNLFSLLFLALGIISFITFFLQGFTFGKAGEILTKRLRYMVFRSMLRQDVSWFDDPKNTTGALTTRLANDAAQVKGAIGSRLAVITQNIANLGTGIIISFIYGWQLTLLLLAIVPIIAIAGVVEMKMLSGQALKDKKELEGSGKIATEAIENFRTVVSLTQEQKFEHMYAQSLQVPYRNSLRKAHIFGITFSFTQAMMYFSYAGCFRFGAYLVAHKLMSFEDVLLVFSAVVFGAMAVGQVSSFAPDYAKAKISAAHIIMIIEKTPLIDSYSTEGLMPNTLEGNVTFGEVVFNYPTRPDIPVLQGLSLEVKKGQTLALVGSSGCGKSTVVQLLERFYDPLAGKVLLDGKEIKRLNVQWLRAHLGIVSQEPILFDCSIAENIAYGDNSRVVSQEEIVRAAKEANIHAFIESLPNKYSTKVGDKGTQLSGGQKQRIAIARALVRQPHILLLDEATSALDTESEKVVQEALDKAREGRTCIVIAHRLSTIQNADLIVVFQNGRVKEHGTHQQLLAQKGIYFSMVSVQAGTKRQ

Row | Activity [1] | Activity [2] | SMILES
1 | is not a substrate [-] | is not a substrate [-] | COc1ccc2c(C(=O)c3cc(OC)c(OC)c(OC)c3)c[nH]c2c1
2 | substrate [+] | substrate [+] | CC(=O)O[C@H]1C(=O)[C@@]2(C)[C@H]([C@H](OC(=O)c3ccccc3)[C@]3(O)C[C@H](OC(=O)[C@H](O)[C@@H](NC(=O)c4ccccc4)c4ccccc4)C(C)=C1C3(C)C)[C@]1(OC(C)=O)CO[C@@H]1C[C@@H]2O [PACLITAXEL]
3 | substrate [+] | substrate [+] | CC[C@]1(O)C[C@H]2CN(CCc3c([nH]c4ccccc34)[C@@](C(=O)OC)(c3cc4c(cc3OC)N(C=O)[C@H]3[C@@](O)(C(=O)OC)[C@H](OC(C)=O)[C@]5(CC)C=CCN6CC[C@]43[C@@H]65)C2)C1 [VINCRISTINE]

Row | SMILES | Activity [1] | Activity [2]
4 | COc1cc2c(c(OC)c1OC)-c1ccc(OC)c(=O)cc1[C@@H](NC(C)=O)CC2 [COLCHICINE] | substrate [+] | substrate [+]
